The source of these data is patent publication US9527850B2, “Benzyl piperidine compounds as lysophosphatidic acid (LPA) receptor antagonist” (Merck Patent GmbH, priority 2011, dated 2016).

The test has as its target T1, LPA2 receptor (LPA2R) (Homo sapiens, UniProt Q9HBW0).
T1 construct: expressed in transfected cells; host or cells: U2OS
Briefly: LPA2R-Calciumflux assay (intracellular calcium mobilisation, FLIPR). The test is classed as cell-based. The conditions noted are these: U2OS cells recombinant expressing LPA2R; inhibition of LPA-induced Ca-flux; 10 concentrations 30 uM to 1 nM, 1% DMSO. An excerpt:
The assay detects intra cellular calcium which is generated by cells upon activation of the LPA2 receptor by its ligand LPA. This transient calcium mobilization can be monitored using a commercial calcium detection kit (e.g. from Molecular Devices). The main component of such a kit is a dye, which becomes fluorescent when calcium is present—a transient fluorescence signal after laddition of a ligand to a test well are the result. Readers like the FLIPR (Molecular Devices) can be used to monitor such transient “Ca-flux” signals.
The signals are calculated according to peak maximum minus base line.
The assay is performed in microplates (384 wells per plate).
LPA2R-Calciumflux Assay Protocol
The assay is run according to the following procedure: • 50 uL seed cells (10000 cells/well in DMEM buffer) • Incubate 24 h at 37° C., 10% CO2 • aspirate medium • 50 uL add calcium dye 1×HBSS/HEPES buffer • incubate 1 h at 37° C. (“loading”) • equilibrate 10 min at RT • 5 uL add compounds in HEPES buffer • shake 10 sec. at 1000 rpm • incubate 15 min at RT • 20 uL add LPA (in the FLIPR Tetra) in Krebs-buffer/BSA & measurement
The cells are seeded in DMEM buffer (DMEM, 10% FCS, 10 mM HEPES, 1% Pen/Strep).
Dye loading is done in HBSS/HEPES buffer (100 mL 10×HBSS+20 mL 1M HEPES+880 mL water, pH 7.4)
The LPA is added in Krebs/BSA buffer (120 mM NaCl, 5 mM KCl, 0.62 mM MgSO4, 1.8 mM CaCl2, 10 mM HEPES, 6 mM D(+)-Glucose, 0.2% BSA, pH 7.4).
The compounds are pre-diluted in HEPES buffer (20 mM, pH 7.4), whereby the final DMSO content in the assay is kept at 1%. The compounds are pre-diluted in order to generate dose response series on the microplates. The dose response series consist of 10 concentrations for each compound from 30 uM final to 1 nM final. From all compound wells the resulting signals are referred to control wells (located on each plate besides the compound wells) in terms of % activity.
From these % activity values—along with the corresponding compound concentrations—IC50 values are fitted for each compound using standard fitting programs such as Graphpad Prism. Here the method “log(inhibitor) vs. response—Variable slope” is used.

Bounds are passed on as bounds.

T1 sequence (Q9HBW0 whole entry): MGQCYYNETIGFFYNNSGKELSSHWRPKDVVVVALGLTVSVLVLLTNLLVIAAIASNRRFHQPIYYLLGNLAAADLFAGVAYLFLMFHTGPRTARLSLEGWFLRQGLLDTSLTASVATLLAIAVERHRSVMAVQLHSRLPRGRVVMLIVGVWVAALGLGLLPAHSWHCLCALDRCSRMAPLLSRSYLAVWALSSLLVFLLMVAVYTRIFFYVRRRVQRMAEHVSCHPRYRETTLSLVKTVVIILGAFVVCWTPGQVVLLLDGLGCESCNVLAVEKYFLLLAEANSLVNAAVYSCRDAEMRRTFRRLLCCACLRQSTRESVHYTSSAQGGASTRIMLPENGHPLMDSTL

Regarding `Cc1cccc(CN2CCCCC2c2nc3ccc(Cl)cc3[nH]2)c1` (stereo not drawn) [compound 91, 6-Chloro 2-[1-(3-methyl-benzyl)-piperidin-2-yl]-1H-benzo-imidazole], the IC50 was < 0.5 µM.

Take `Cc1ccc(CN2CCCC[C@H]2c2cc3cc(F)ccc3[nH]2)cc1C` [compound 139, 2-[(S)-1-(3,4-Dimethyl-benzyl)-piperidin-2-yl]-5-fluoro-1H-indole]: the half-inhibitory concentration (IC50) was in the range of 0.5 to 5 µM.

`Cc1ccc(CN2C(C)CCCC2c2cc3cc(F)ccc3[nH]2)cc1` (stereo not drawn) [compound 46, 5-Fluoro-2-[6-methyl-1-(4-methyl-benzyl)-piperidin-2-yl]-1H-indole]: the IC50 lay within 0.5 to 5 µM. As to `CC1CCCC(c2cc3ccccc3[nH]2)N1Cc1ccccc1O` (stereo not drawn) [compound 26, 2-[2-(1H-Indol-2-yl)-6-methyl-piperidin-1-ylmethyl]-phenol], the IC50 was 0.5 to 5 µM.

Regarding `Cc1ccc(CN2CCCCC2c2nc3ccccc3s2)cc1C` (stereo not drawn) [compound 52, 2-[1-(3,4-Dimethyl-benzyl)-piperidin-2-yl]-benzo-thiazole], the IC50 was 5 to 15 µM. The figure for `CC(c1ccc(F)cc1)N1CCCCC1c1cc2cc(F)ccc2[nH]1` (stereo not drawn) [compound 72, 5-Fluoro-2-{1-[1-(4-fluoro-phenyl)-ethyl]-piperidin-2-yl}-1H-indole] is < 0.5 µM; for `Fc1ccc(CN2CCCC[C@H]2c2cc3ccccc3[nH]2)cc1` [compound 124, 2-[(S)-1-(4-Fluoro-benzyl)-piperidin-2-yl]-1H-indole] it is 0.5 to 5 µM; for `Cn1cccc1CN1CCCCC1c1cc2ccccc2[nH]1` (stereo not drawn) [compound 10] it is 5 to 15 µM. With `COc1ccccc1CN1C(C)CCCC1c1cc2cc(F)ccc2[nH]1` (stereo not drawn) [compound 28, 5-Fluoro-2-[1-(2-methoxy-benzyl)-6-methyl-piperidin-2-yl]-1H-indole], the IC50 lay in the range of 0.5 to 5 µM. With `COc1ccc2[nH]c(C3CC(C)CCN3Cc3ccc(C)c(C)c3)cc2c1` (stereo not drawn) [compound 83, 2-[1-(3,4-Dimethyl-benzyl)-4-methyl-piperidin-2-yl]-5-methoxy-1H-indole] the figure was 0.5 to 5 µM; with `Cc1cccc(CN2CCCCC2c2nc3cc(C)c(Cl)cc3[nH]2)c1` (stereo not drawn) [compound 106, 6-Chloro-5-methyl-2-[1-(3-methyl-benzyl)-piperidin-2-yl]-1H-benzo-imidazole], < 0.5 µM. With `Fc1ccc(CN2CCCCC2c2nc3nccnc3[nH]2)cc1` (stereo not drawn) [compound 133, 2-[1-(4-Fluoro-benzyl)-piperidin-2-yl]-1H-imidazo[4,5-b]pyrazine] the figure was 5 to 15 µM.

As for `Cc1ccc(CN2C(C)CCCC2c2cc3ccccc3[nH]2)cc1C` (stereo not drawn) [compound 27, 2-[1-(3,4-Dimethyl-benzyl)-6-methyl-piperidin-2-yl]-1H-indole], the IC50 is < 0.5 µM. As for `Fc1ccc(F)c2[nH]c(C3CCCCN3)cc12` (stereo not drawn) [compound 44, 4,7-Difluoro-2-piperidin-2-yl-1H-indole], the IC50 was in the range of 0.5 to 5 µM. Take `COc1cccc(CN2CC(C)CCC2c2cc3cc(F)ccc3[nH]2)c1` (stereo not drawn) [compound 62, 5-Fluoro-2-[1-(3-methoxy-benzyl)-5-methyl-piperidin-2-yl]-1H-indole]: the IC50 was 5 to 15 µM.

As to `CC1CCCN(Cc2ccc(F)cc2)C1c1cc2ccccc2[nH]1` (stereo not drawn) [compound 81, 2-[1-(4-Fluoro-benzyl)-3-methyl-piperidin-2-yl]-1H-indole], the IC50 was 0.5 to 5 µM.

As for `Fc1ccc2[nH]c(C3CCCCN3Cc3ccc(Cl)c(Cl)c3)cc2c1` (stereo not drawn) [compound 60, 2-[1-(3,4-Dichlorobenzyl)-piperidin-2-yl]-5-fluoro-1H-indole], the IC50 was in the range of 5 to 15 µM. With `Cc1cccc(CN2CCCCC2c2cc3ccccc3[nH]2)c1` (stereo not drawn) [compound 2, 2-[1-(3-Methyl-benzyl)-piperidin-2-yl]-1H-indole], the IC50 was < 0.5 µM. `Cc1ccc(CN2CCCCC2c2cc3c(F)ccc(F)c3[nH]2)cc1C` (stereo not drawn) [compound 24, 2-[1-(3,4-Dimethyl-benzyl)-piperidin-2-yl]-4,7-difluoro-1H-indole]: the IC50 is 0.5 to 5 µM. With `CC1CCCC(c2cc3cc(F)ccc3[nH]2)N1Cc1ccc(Cl)cc1` (stereo not drawn) [compound 39, 2-[1-(4-Chloro-benzyl)-6-methyl-piperidin-2-yl]-5-fluoro-1H-indole], the IC50 is 0.5 to 5 µM. For the compound `COc1ccc(CN2CCCCC2c2cc3cc(Cl)ccc3[nH]2)cc1` (stereo not drawn) [compound 73, 5-Chloro-2-[1-(4-methoxy-benzyl)-piperidin-2-yl]-1H-indole], the IC50 is < 0.5 µM. For the compound `Cc1ccc(CN2CCCCC2c2cc3cc(F)ccc3[nH]2)cc1C` (stereo not drawn) [compound 15, 2-[1-(3,4-Dimethyl-benzyl)-piperidin-2-yl]-5-fluoro-1H-indole], the IC50 lay within 0.5 to 5 µM. Regarding `Cc1ccc2c(c1)c(CN1CCCCC1c1cc3cc(F)ccc3[nH]1)cn2C` (stereo not drawn) [compound 65, 3-[2-(5-Fluoro-1H-indol-2-yl)-piperidin-1-ylmethyl]-1,5-dimethyl-1H-indole], the IC50 lay in the range of 0.5 to 5 µM. On to `COc1cccc(CN2C(C)CCCC2c2cc3cc(F)ccc3[nH]2)c1` (stereo not drawn) [compound 40, 5-Fluoro-2-[1-(3-methoxy-benzyl)-6-methyl-piperidin-2-yl]-1H-indole], for which the IC50 was < 0.5 µM.

As for `FC(F)(F)c1cccc(CN2CCCCC2c2nc3ccc(Cl)cc3[nH]2)c1` (stereo not drawn) [compound 89], the IC50 fell in the range of 0.5 to 5 µM. The figure for `Cc1ccc(CN2CCCCC2c2cc3ccccc3[nH]2)cc1C` (stereo not drawn) [compound 5, 2-[1-(3,4-Dimethyl-benzyl)-piperidin-2-yl]-1H-indole] is < 0.5 µM; for `CC1(C)CCC(C)(C)c2cc(CN3CCCCC3c3nc4ccc(S(N)(=O)=O)cc4[nH]3)ccc21` (stereo not drawn) [compound 118, 2-[1-(5,5,8,8-Tetramethyl-5,6,7,8-tetrahydro-naphthalen-2-ylmethyl)-piperidin-2-yl]-3H-benzo-imidazole-5-sulfonic acid amide] it is 0.5 to 5 µM. With `Cc1ccc(CN2CCC3C[C@]32c2nc3cc(F)ccc3[nH]2)cc1C` (stereo partly drawn) [compound 135, 2-[(R)-2-(3,4-Dimethyl-benzyl)-2-aza-bicyclo-[3.1.0]hex-1-yl]-5-fluoro-1H-benzo-imidazole] the figure was 5 to 15 µM. On to `Fc1ccc(CN2CCCC[C@H]2c2cc3cc(F)ccc3[nH]2)cc1` [compound 137, 5-Fluoro-2-[(S)-1-(4-fluoro-benzyl)-piperidin-2-yl]-1H-indole], for which the IC50 lay within 0.5 to 5 µM. For the compound `Cc1ccc(CN2CCCCC2c2nc3ccc(S(N)(=O)=O)cc3[nH]2)cc1C` (stereo not drawn) [compound 116, 2-[1-(3,4-Dimethyl-benzyl)-piperidin-2-yl]-3H-benzo-imidazole-5-sulfonic acid amide], the IC50 is < 0.5 µM. Regarding `Cc1cccc(CN2CCCCC2c2nc3cc(Cl)cc(C)c3[nH]2)c1` (stereo not drawn) [compound 99, 5-Chloro-7-methyl-2-[1-(3-methyl-benzyl)-piperidin-2-yl]-1H-benzo-imidazole], the IC50 lay within 0.5 to 5 µM. The figure for `Cc1ccc2c(CN3CCCCC3c3cc4cc(F)ccc4[nH]3)cn(C)c2c1` (stereo not drawn) [compound 66, 3-[2-(5-Fluoro-1H-indol-2-yl)-piperidin-1-ylmethyl]-1,6-dimethyl-1H-indole] is 0.5 to 5 µM.

On to `Cc1ccc(CN2CCCC[C@H]2c2nc3cc(Cl)cnc3[nH]2)cc1C` [compound 141, 6-Chloro-2-[(S)-1-(3,4-dimethyl-benzyl)-piperidin-2-yl]-3H-imidazo[4,5-b]pyridine], for which the IC50 lay within 0.5 to 5 µM. `FC(F)(F)c1ccc(CN2CCCCC2c2cc3ccccc3[nH]2)cc1` (stereo not drawn) [compound 18]: the IC50 is 0.5 to 5 µM. Consider `COc1ccc(CN2CCCCC2c2nc3cc(F)ccc3[nH]2)cc1` (stereo not drawn) [compound 47], for which the IC50 lay in the range of 0.5 to 5 µM. The figure for `Cn1cc(CN2CCCCC2c2cc3ccccc3[nH]2)c2ccccc21` (stereo not drawn) [compound 8, 3-[2-(1H-Indol-2-yl)-piperidin-1-ylmethyl]-1-methyl-1H-indole] is 0.5 to 5 µM.

Take `COc1cccc(CN2CCCCC2c2cc3cc(OC)ccc3[nH]2)c1` (stereo not drawn) [compound 82, 5-Methoxy-2-[1-(3-methoxy-benzyl)-piperidin-2-yl]-1H-indole]: the IC50 was < 0.5 µM. The figure for `CCOC(=O)c1ccc(CN2C(C)CCCC2c2cc3cc(F)ccc3[nH]2)cc1` (stereo not drawn) [compound 35, 4-[2-(5-Fluoro-1H-indol-2-yl)-6-methyl-piperidin-1-ylmethyl]-benzoic acid ethyl ester] is 0.5 to 5 µM; for `Cc1ccc(CN2CCCCC2c2nc3ccc(Cl)cc3[nH]2)cc1C` (stereo not drawn) [compound 88, 6-Chloro-2-[1-(3,4-dimethyl-benzyl)-piperidin-2-yl]-1H-benzo-imidazole] it is < 0.5 µM.
